Test results published in ChEMBL document CHEMBL6182863, “Discovery of novel rigid STING PROTAC degraders as potential therapeutics for acute kidney injury” (Eur J Med Chem, 2025).
Active and inactive are the calls of the source. The calls are words filed in the database; no cut-off is given here.

Columns and labels:
[1] = target: T1, Protein cereblon/Stimulator of interferon genes protein (Homo sapiens, UniProt Q96SW2+Q86WV6); assay: PROTAC activity at CRBN/STING in human THP-1 cells assessed as induction of STING degradation by Western blotting analysis; type: cell-based; conditions: time 1-48 hrs
T1 sequence (Q86WV6 whole entry, looked up): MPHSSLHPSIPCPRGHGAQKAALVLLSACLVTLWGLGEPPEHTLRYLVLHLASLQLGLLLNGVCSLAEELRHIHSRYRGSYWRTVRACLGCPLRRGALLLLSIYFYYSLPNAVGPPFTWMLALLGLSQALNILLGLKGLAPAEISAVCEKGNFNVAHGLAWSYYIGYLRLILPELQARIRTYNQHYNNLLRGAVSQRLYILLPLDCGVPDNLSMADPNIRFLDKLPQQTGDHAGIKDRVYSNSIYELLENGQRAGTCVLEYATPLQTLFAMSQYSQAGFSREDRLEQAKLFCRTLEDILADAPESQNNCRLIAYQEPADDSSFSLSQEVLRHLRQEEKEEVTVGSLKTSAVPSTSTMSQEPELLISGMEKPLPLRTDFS
T1 sequence (Q96SW2 whole entry, looked up): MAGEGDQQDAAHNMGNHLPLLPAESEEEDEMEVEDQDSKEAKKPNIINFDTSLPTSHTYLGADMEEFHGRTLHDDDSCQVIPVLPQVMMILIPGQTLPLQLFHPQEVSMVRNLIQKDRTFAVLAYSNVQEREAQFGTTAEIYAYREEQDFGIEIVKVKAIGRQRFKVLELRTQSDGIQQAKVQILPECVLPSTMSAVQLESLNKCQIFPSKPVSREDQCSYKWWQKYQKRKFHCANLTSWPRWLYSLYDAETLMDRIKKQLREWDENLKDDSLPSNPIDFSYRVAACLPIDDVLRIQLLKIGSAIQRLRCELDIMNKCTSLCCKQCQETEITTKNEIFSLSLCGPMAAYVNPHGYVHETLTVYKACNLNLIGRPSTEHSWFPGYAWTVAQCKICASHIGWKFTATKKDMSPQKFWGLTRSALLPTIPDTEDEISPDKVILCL

[2] = target: T1, Protein cereblon/Stimulator of interferon genes protein; assay: PROTAC activity at CRBN/STING in human THP-1 cells assessed as induction of STING degradation at 5 uM incubated for 24 hrs in presence of MG132 by Western blotting analysis; type: cell-based
[3] = system: HK-2; assay: Inhibition of STING downstream signal pathway in cisplatin stimulated human HK-2 cells assessed as reduction in P-P65 level by […] analysis; type: cell-based; conditions: dose 1.25-5 µM
[4] = system: THP-1; assay: PROTAC activity at CRBN/STAT3 in human THP-1 cells assessed as induction of STAT3 degradation at 1.25 to 20 uM by Western blotting analysis; type: cell-based; conditions: dose 1.25-20 µM
[5] = system: THP-1; assay: PROTAC activity at CRBN/AKT in human THP-1 cells assessed as induction of AKT degradation at 1.25 to 20 uM measured after 24 hrs by Western blotting analysis; type: cell-based; conditions: dose 1.25-20 µM
[6] = system: HEK-293T; assay: Cytotoxicity against human HEK293T cells assessed as reduction in cell viability at 0.5 to 120 uM incubated for 24 hrs by MTT assay; type: toxicity, cell-based; conditions: dose 0.5-120 µM
[7] = system: BV-2; assay: Cytotoxicity against mouse BV-2 cells assessed as reduction in cell viability at > 60 uM incubated for 24 hrs by MTT assay; type: toxicity, cell-based; conditions: bv-2, 24 h
[8] = Acute toxicity in C57BL/6J mouse assessed as change in body weight at 43 mg/kg; type: organism-based; conditions: in vivo
[9] = Acute toxicity in C57BL/6J mouse assessed as change in body weight at 61 mg/kg; type: organism-based; conditions: in vivo
[10] = Acute toxicity in C57BL/6J mouse assessed as mortality at 30 to 179 mg/kg; type: organism-based; conditions: in vivo, dose 30-179 mg/kg
[11] = Acute toxicity in C57BL/6J mouse assessed as survival at 30 to 179 mg/kg; type: organism-based; conditions: in vivo, dose 30-179 mg/kg
[12] = Acute toxicity in C57BL/6J mouse; conditions: in vivo, dose 30 mg/kg
[13] = Metabolic stability in human liver microsomes assessed as intrinsic clearance per gram of protein; type: ADME, Microsome
[14] = Tmax in male Sprague-Dawley rat at 2 mg/kg, iv measured after 12 hrs by LC-MS/MS analysis; type: ADME, organism-based; conditions: in vivo
[15] = Clearance in male Sprague-Dawley rat at 2 mg/kg, iv measured after 12 hrs by LC-MS/MS analysis; type: ADME, organism-based; conditions: in vivo
[16] = Toxicity in cisplatin-induced acute kidney injury C57BL/6J mouse model assessed as morphological abnormality in heart at 25 to 50 mg/kg, ip by H and E staining based analysis; type: organism-based; conditions: in vivo, dose 25-50 mg/kg
[17] = Toxicity in cisplatin-induced acute kidney injury C57BL/6J mouse model assessed as morphological abnormality in spleen at 25 to 50 mg/kg, ip by H and E staining based analysis; type: organism-based; conditions: in vivo, dose 25-50 mg/kg
[18] = system: Mus musculus; assay: Renoprotective activity against cisplatin-induced C57BL/6J mouse acute kidney injury model assessed as decrease in disease activity index score at 25 to 50 mg/kg, ip measured after 72 hrs; type: functional, organism-based; conditions: dose 25-50 mg/kg
[19] = system: Mus musculus; assay: Renoprotective activity against cisplatin-induced C57BL/6J mouse acute kidney injury model assessed as reduction in kidney weight at 25 to 50 mg/kg, ip measured after 72 hrs; type: functional, organism-based; conditions: dose 25-50 mg/kg
[20] = system: Mus musculus; assay: Renoprotective activity against cisplatin-induced C57BL/6J mouse acute kidney injury model assessed as reduction in BUN level at 25 to 50 mg/kg, ip measured after 72 hrs; type: functional, organism-based; conditions: dose 25-50 mg/kg
[21] = system: Mus musculus; assay: Renoprotective activity against cisplatin-induced C57BL/6J mouse acute kidney injury model assessed as reduction in creatinine level at 25 to 50 mg/kg, ip measured after 72 hrs; type: functional, organism-based; conditions: dose 25-50 mg/kg
[22] = system: Mus musculus; assay: Renoprotective activity against cisplatin-induced C57BL/6J mouse acute kidney injury model assessed as decrease in fecal viscosity at 25 to 50 mg/kg, ip measured after 72 hrs; type: functional, organism-based; conditions: dose 25-50 mg/kg
[23] = system: Mus musculus; assay: Renoprotective activity against cisplatin-induced C57BL/6J mouse acute kidney injury model assessed as decrease in fecal occult blood at 25 to 50 mg/kg, ip measured after 72 hrs; type: functional, organism-based; conditions: dose 25-50 mg/kg
[24] = target: Protein cereblon/Stimulator of interferon genes protein (Mus musculus) (UniProt Q3TBT3+Q8C7D2); assay: In vivo inhibition of STING/TBK1/NF-kappaB signaling in C57BL/6J mouse assessed as decrease in serum IFN-beta level at 25 to 50 mg/kg, ip measured after 72 hrs by ELISA; type: functional, organism-based; conditions: dose 25-50 mg/kg
Chain of Protein cereblon/Stimulator of interferon genes protein (Mus musculus) (Q3TBT3 whole entry, looked up): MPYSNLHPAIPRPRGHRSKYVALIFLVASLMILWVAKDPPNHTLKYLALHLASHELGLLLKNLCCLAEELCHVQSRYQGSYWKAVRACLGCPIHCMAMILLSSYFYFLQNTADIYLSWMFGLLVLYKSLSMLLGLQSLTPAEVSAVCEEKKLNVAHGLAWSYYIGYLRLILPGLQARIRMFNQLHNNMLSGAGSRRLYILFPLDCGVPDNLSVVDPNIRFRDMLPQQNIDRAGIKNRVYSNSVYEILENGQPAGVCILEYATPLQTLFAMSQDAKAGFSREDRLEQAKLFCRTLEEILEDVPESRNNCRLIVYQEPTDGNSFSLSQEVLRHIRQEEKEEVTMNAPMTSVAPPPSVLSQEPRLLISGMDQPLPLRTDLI
Chain of Protein cereblon/Stimulator of interferon genes protein (Mus musculus) (Q8C7D2 whole entry, looked up): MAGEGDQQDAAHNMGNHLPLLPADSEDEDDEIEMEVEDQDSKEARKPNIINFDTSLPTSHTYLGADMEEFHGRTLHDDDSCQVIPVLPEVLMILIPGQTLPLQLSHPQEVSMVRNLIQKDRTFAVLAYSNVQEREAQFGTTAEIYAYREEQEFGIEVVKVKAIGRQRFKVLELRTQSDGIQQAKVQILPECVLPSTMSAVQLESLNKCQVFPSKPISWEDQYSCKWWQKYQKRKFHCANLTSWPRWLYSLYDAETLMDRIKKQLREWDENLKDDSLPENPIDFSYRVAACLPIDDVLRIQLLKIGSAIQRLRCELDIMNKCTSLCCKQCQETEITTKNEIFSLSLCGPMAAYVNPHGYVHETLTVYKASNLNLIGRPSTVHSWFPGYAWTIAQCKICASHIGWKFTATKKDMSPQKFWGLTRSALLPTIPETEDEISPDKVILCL

[25] = system: THP-1; assay: PROTAC activity at CRBN/AMPK in human THP-1 cells assessed as induction of AMPK degradation at 1.25 to 20 uM measured after 24 hrs by Western blotting analysis; type: cell-based; conditions: dose 1.25-20 µM

With O=C(/C=C/C(=O)N1CCN(CC2CCN(c3cccc4c3C(=O)N(C3CCC(=O)NC3=O)C4=O)C2)CC1)Nc1ccc(NC(=O)c2ccc([N+](=O)[O-])o2)cc1 (stereo not given) the Activity [1] was “Time-dependent-effect”, the Activity [2] was “inactive” and the inhibition [3] was “Dose-dependent-effect”. For the same compound, the Activity [4] was “inactive”, the Activity [5] was “inactive” and the Activity [6] was “Non-toxic”. For the same compound, the Activity [7] was “Non-toxic”, the Activity [8] was 24.2 g and the Activity [9] was 25.3 g. For the same compound, the Activity [10] was “Non-toxic”, the survival [11] was 100% and the LD50 [12] was greater than 179 mg/kg. For the same compound, the CLint [13] was 104 mL/min/g, the Tmax [14] was 4.8 min and the CL [15] was 53.3 mL/min/kg. The Activity [16] was “Non-toxic”, the Activity [17] was “Non-toxic” and the Activity_index [18] was “Active”. The Activity [19] was “Active”, the Activity [20] was “Active” and the Activity [21] was “Active”. For the same compound, the Activity [22] was “Active”, the Activity [23] was “Active” and the inhibition [24] was “Active”. For the same compound, the Activity [25] was “inactive”.
